EC50 data for 20 molecules are collected here from patent publication US10899723B2, “Heterocyclic containing cyclopropyl FXR modulators” (Hepagene Therapeutics (HK) Limited, priority 2016, dated 2021).

The pEC50 is the EC50 on a negative log10 scale, so that one unit is a factor of ten.

pEC50: −log10 of the molar value.

The target in one assay is T1, FXR (Homo sapiens, UniProt Q96RI1).
T1 construct: expressed in transfected cells; host or cells: HEK293T
T1 sequence (Q96RI1 1-486): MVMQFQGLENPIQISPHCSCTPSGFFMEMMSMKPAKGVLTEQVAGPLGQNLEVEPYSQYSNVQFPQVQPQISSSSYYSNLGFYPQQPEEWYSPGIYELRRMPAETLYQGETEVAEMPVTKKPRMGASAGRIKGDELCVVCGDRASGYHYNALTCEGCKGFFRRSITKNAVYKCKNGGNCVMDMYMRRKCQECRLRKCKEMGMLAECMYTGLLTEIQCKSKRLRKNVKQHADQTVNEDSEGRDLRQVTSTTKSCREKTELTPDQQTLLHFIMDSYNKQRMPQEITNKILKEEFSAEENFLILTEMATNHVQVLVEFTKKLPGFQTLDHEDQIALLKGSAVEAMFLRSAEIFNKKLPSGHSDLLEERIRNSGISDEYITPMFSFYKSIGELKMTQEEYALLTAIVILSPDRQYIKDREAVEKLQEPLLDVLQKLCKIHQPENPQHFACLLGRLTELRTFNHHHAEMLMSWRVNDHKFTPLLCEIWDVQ
The assay is described as follows: FXR Transactivation Assay (pBIND-FXR / pGL4.35 luciferase reporter in HEK293T). Conditions: HEK293T cells. The class given is cell-based. The protocol: FXR Transactivation Assay
pGL4.35 [luc2P/9XGAL4 UAS/Hygro]
DMEM medium, high glucose
Fetal Bovine Serum (FBS, heat-inactivated)
Penicillin-Streptomycin (10000 U/ml, 100 ml)
DMEM, High Glucose, HEPES, no Phenol Red
Opti-MEM® I Reduced Serum Medium
Steady-Glo™ Luciferase Assay System
TransIT-293 Transfection Reagent
GW4064 as a positive control
(§1) • 1. Hek293T cells were plated at 1.1*10^6/ml into a 100 mm dish. • 2. Cells were transfected with 8.4 μg of pBind-FXR, 1.26 μg of the reporter vector pGL4.35 (Promega). Cells were incubated at 37° C. under 5% CO2 atmosphere. • 3. All of compounds were 3-fold serial diluted from 10 mM stock for 10 doses in DMSO. • 4. Transfer compound dilutions into 384 well assay plates using liquid workstation. • 5. Seed 25 ul HEK293T cells into 384 well assay plate (prepared step 4) at 0.6*10^5/ml. Cells were incubated at 37° C. under 5% CO2 atmosphere overnight. • 6. Add 25 ul steady-Glo™ Luciferase Assay Reagent into each well of 384-well assay plate. • 7. Record the luminescence value on Envision 2104 plate reader. • 8. Calculate EC50 by fitting % Activity values and log of compound concentrations to nonlinear regression (dose response−variable slope) with Graphpad 5.0. FXR Coactivator Assay Reagents: LanthaScreen™ TR-FRET Farnesoid X Receptor Coactivator Assay GW4064 as a positive control Process: • 1. All of compounds were 3-fold serial diluted from 10 mM stock for 10 doses in DMSO. • 2. Dilute each 100× agonist serial dilution to 2× using Complete Coregulator buffer G. • 3. Transfer 10 μl of each of the 2× agonist serial dilutions to 384 well assay plates. • 4. […] Incubate at room temperature protected from light. • 7. Read the plate at wavelengths of 520 nm and 495 nm on Envision 2104 plate reader. • 8. Calculate the TR-FRET ratio by dividing the emission signal at 520 nm by the emission signal at 495 nm. • 9. Calculate EC50 by fitting % Activity values and log of compound concentrations to nonlinear regression (dose response−variable slope) with Graphpad 5.0.
On the technique in general: In a reporter assay the amount or activity of a reporter protein is the signal.

A further assay deals with T2, FXR-LBD (Homo sapiens, UniProt Q96RI1).
T2 construct: Add 5 μl of 4×FXR-LBD to 384 well assay plates; purchased
T2 sequence (Q96RI1 262-486 limits assumed): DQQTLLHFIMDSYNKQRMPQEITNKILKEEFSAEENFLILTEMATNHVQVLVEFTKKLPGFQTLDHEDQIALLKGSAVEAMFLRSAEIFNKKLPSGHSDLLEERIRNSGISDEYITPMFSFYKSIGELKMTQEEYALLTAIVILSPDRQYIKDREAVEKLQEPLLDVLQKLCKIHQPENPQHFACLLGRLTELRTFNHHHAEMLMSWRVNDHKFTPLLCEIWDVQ
The assay is described as follows: FXR Coactivator Assay (LanthaScreen TR-FRET). Format: biochemical. The protocol:
as §1
(In general: In TR-FRET formats the signal depends on donor and acceptor labels being close together.)

For the molecule `COc1cc(C(=O)O)cc2sc(C3(C)CC3c3ccc(OCc4c(-c5c(Cl)cccc5Cl)noc4C4CC4)cc3Cl)nc12` (centres unmarked) [IV-15, 2-[2-(2-Chloro-4-[[5-cyclopropyl-3-(2,6-dichlorophenyl)-1,2-oxazol-4-yl]methoxy]phenyl)-1-methylcyclopropyl]-4-methoxy-1,3-benzothiazole-6-carboxylic Acid], the pEC50 on FXR is 6.40 to 7.00; at FXR-LBD, 7.00 to 8.00. Taken in the same sequence, the figures for `CC(C)c1onc(-c2c(Cl)cccc2Cl)c1COc1ccc(C2CC2(C)c2cc(C(=O)O)nn2C(C)C)c(Cl)c1` (centres unmarked) [IV-20] were 6.40 to 7.00 and 7.00 to 8.00. Taken in the same sequence, the figures for `CC(C)c1onc(-c2c(Cl)cccc2Cl)c1COc1ccc(C2(C)CC2c2cccc(C(=O)O)c2)c(Cl)c1` (centres unmarked) [VI-02] were 7.00 to 8.00 and 7.00 to 8.00. In the same order, the values of `CC(C)c1onc(-c2c(Cl)cccc2Cl)c1COc1ccc(C2CC2(C)c2cccc(C(=O)O)c2)c(Cl)c1` (centres unmarked) [IV-02] are 6.40 to 7.00 and 7.00 to 8.00. `CC1(c2ccc(OCc3c(-c4c(Cl)cccc4Cl)noc3C3CC3)cc2Cl)CC1c1cncc(C(=O)O)c1` (centres unmarked) [VI-05]: the pEC50 on FXR and at FXR-LBD was 7.00 to 8.00 in each case. For the molecule `CC(C)c1onc(-c2c(Cl)cccc2Cl)c1COc1ccc(C2CC2(C#N)c2cccc(C(=O)O)c2)c(Cl)c1` (centres unmarked) [Compound V-02], the pEC50 on FXR was 6.40 to 7.00; at FXR-LBD it was 7.00 to 8.00. In the same order, the values of `CC(C)c1onc(-c2c(Cl)cccc2Cl)c1COc1ccc(C2CC2(C)c2ccc(C(=O)O)cc2)c(Cl)c1` (centres unmarked) [IV-01] are 5.30 to 6.40 and 6.40 to 7.00. In the same order, the values of `CC(C)c1onc(-c2c(Cl)cccc2Cl)c1COc1ccc(C2CC2(C)c2cncc(C(=O)O)c2)c(Cl)c1` (single isomer, unassigned) [IV-05-2, 5-[2-(2-Chloro-4-[[3-(2,6-dichlorophenyl)-5-(propan-2-yl)-1,2-oxazol-4-yl]methoxy]phenyl)-1-methylcyclopropyl] pyridine-3-carboxylic Acid] are 6.40 to 7.00 and 7.00 to 8.00. In the same order, the values of `CC(C)c1onc(-c2c(Cl)cccc2Cl)c1COc1ccc(C2(C)CC2c2ccc(C(=O)O)cc2)c(Cl)c1` (centres unmarked) [VI-01, 4-(2-(2-Chloro-4-((3-(2,6-dichlorophenyl)-5-isopropylisoxazol-4-yl)methoxy)phenyl)-2-methylcyclopropyl) benzoic Acid] are 6.40 to 7.00 and 7.00 to 8.00. For the molecule `CC(C)c1onc(-c2c(Cl)cccc2Cl)c1COc1ccc(C2CC2(C)c2cncc(C(=O)O)c2)c(Cl)c1` (single isomer, unassigned) [IV-05-1, 5-[2-(2-Chloro-4-[[3-(2,6-dichlorophenyl)-5-(propan-2-yl)-1,2-oxazol-4-yl]methoxy]phenyl)-1-methylcyclopropyl] pyridine-3-carboxylic Acid], the pEC50 on FXR and at FXR-LBD was 7.00 to 8.00 throughout. For `CC1(c2ncc(C(=O)O)s2)CC1c1ccc(OCc2c(-c3c(Cl)cccc3Cl)noc2C2CC2)cc1Cl` (centres unmarked) [IV-19, 2-(2-(2-Chloro-4-((5-cyclopropyl-3-(2,6-dichlorophenyl)isoxazol-4-yl)methoxy)phenyl)-1-methylcyclopropyl) thiazole-5-carboxylic Acid], the pEC50 at FXR-LBD is 6.40 to 7.00.

Turning to `CC1(c2cncc(C(=O)NCCS(=O)(=O)O)c2)CC1c1ccc(OCc2c(-c3c(Cl)cccc3Cl)noc2C2CC2)cc1Cl` (centres unmarked) [IV-13], the pEC50 at FXR-LBD is 7.00 to 8.00.

Take `CC(C)c1onc(-c2c(Cl)cccc2Cl)c1COc1ccc(C2(C#N)CC2c2ccc(C(=O)O)cc2)c(Cl)c1` (centres unmarked) [VII-01]: the results for the pEC50 at FXR and at FXR-LBD were 5.30 to 6.40 and 7.00 to 8.00, respectively. Taken in the same sequence, the figures for `CC(C)c1onc(-c2c(Cl)cccc2Cl)c1COc1ccc(C2(C#N)CC2c2cccc(C(=O)O)c2)c(Cl)c1` (centres unmarked) [VII-02, 3-[2-(2-Chloro-4-[[3-(2,6-dichlorophenyl)-5-(propan-2-yl)-1,2-oxazol-4-yl]methoxy]phenyl)-2-cyanocyclopropyl] benzoic Acid] were 6.40 to 7.00 and 7.00 to 8.00. As to `N#CC1(c2ccc(OCc3c(-c4c(Cl)cccc4Cl)noc3C3CC3)cc2Cl)CC1c1cccc(C(=O)O)c1` (centres unmarked) [VII-03, 3-[2-(2-Chloro-4-[[5-cyclopropyl-3-(2,6-dichlorophenyl)-1,2-oxazol-4-yl]methoxy]phenyl)-2-cyanocyclopropyl] benzoic Acid], the pEC50 at FXR and on FXR-LBD was 7.00 to 8.00 each time. `CC(C)c1onc(-c2c(Cl)cccc2Cl)c1COc1ccc(C2(C)CC2c2cncc(C(=O)O)c2)c(Cl)c1` (centres unmarked) [VI-04, 5-[2-(2-Chloro-4-[[3-(2,6-dichlorophenyl)-5-(propan-2-yl)-1,2-oxazol-4-yl]methoxy]phenyl)-2-methylcyclopropyl] pyridine-3-carboxylic Acid]: the pEC50 at FXR and on FXR-LBD was 7.00 to 8.00 throughout. As to `CC1(c2cccc(C(=O)O)c2)CC1c1ccc(OCc2c(-c3c(Cl)cccc3Cl)noc2C2CC2)cc1Cl` (centres unmarked) [IV-03], the values for the negative logarithm of the EC50 (pEC50) at FXR and on FXR-LBD were 6.40 to 7.00 and 7.00 to 8.00, respectively. Taken in the same sequence, the figures for `CC1(c2cncc(C(=O)O)c2)CC1c1ccc(OCc2c(-c3c(Cl)cccc3Cl)noc2C2CC2)cc1Cl` (centres unmarked) [IV-06, 5-[2-(2-Chloro-4-[[5-cyclopropyl-3-(2,6-dichlorophenyl)-1,2-oxazol-4-yl]methoxy]phenyl)-1-methylcyclopropyl] pyridine-3-carboxylic Acid] were 7.00 to 8.00 and 7.00 to 8.00.

For `CC(C)c1onc(-c2c(Cl)cccc2Cl)c1COc1ccc(C2CC2(C)c2cncc(C(=O)O)c2)c(Cl)c1` (centres unmarked) [IV-05, 5-[2-(2-Chloro-4-[[3-(2,6-dichlorophenyl)-5-(propan-2-yl)-1,2-oxazol-4-yl]methoxy]phenyl)-1-methylcyclopropyl] pyridine-3-carboxylic Acid], the pEC50 at FXR and on FXR-LBD was 7.00 to 8.00 in each case. As to `N#CC1(c2ccc(OCc3c(-c4c(Cl)cccc4Cl)noc3C3CC3)cc2Cl)CC1c1cccc(C(=O)O)c1` (single isomer, unassigned) [VII-03-1, 3-[2-(2-Chloro-4-[[5-cyclopropyl-3-(2,6-dichlorophenyl)-1,2-oxazol-4-yl]methoxy]phenyl)-2-cyanocyclopropyl] benzoic Acid], the pEC50 on FXR was 6.40 to 7.00; on FXR-LBD, 7.00 to 8.00.
